Test results from US20230048678A1, “ICAN DERIVATIVES FOR ANTIFUNGAL USE” (DEBRECENI EGYETEM, priority 2019, published 2023).

Tests used:
[1] = system: C. parapsilosis isolates; assay: CLSI M27-A3 broth microdilution on Candida isolates (Table 2); assay type: cell-based
Procedure: (§1) The tested C. albicans, C. tropicalis, C. parapsilosis, C. glabrata and C. krusei ATCC strains and clinical isolates are listed in Table 2. MICs were determined according to the CLSI M27-A3 [22]. Antifungal agents were dissolved in 100% DMSO and diluted further in RPMI-1640 (with L-glutamine but without bicarbonate) (Sigma, Budapest, Hungary), and buffered to pH 7.0 with 0.165 M morpholinopropanesulfonic acid (MOPS; Sigma, Budapest, Hungary). The final concentration ranges used for AMB and ICAN derivatives were 0.125 to 4 μg/ml and 0.04 to 20 μg/ml, respectively. Yeast cell suspensions were prepared in RPMI 1640 medium and were adjusted to give a final inoculum concentration of 0.5×10^3 to 2.5×10^3 cells/ml. MICs were read visually after 48-h incubation at 35° C. using the partial (50%) inhibition (for ICAN derivatives) (PI) and total inhibition (for AMB and ICAN derivatives) (TI) criteria. MICs were determined at least twice. For amphotericin B isolates with MIC values of ≤2 mg/L were considered wild-types. [Pfaller M A, 2012]

[2] = system: C. tropicalis isolates; assay: as above; assay type: cell-based
Procedure: as §1

[C-]#[N+]c1cccc2c(N(C)C)cccc12 [DIMICAN, N,N-dimethyl-1-amino-5-isocyanonaphthalene]
MICPI ([1]; isolate 4133): 0.08 µg/mL
MICTI ([1]; isolate 4133): 0.08 µg/mL
MICPI ([1]; isolate 9613): 0.15 µg/mL
MICTI ([1]; isolate 9613): 0.15 µg/mL
MICPI ([1]; isolate 10252): ≤0.04 µg/mL
MICTI ([1]; isolate 10252): 0.08 µg/mL
MICPI ([1]; isolate 18154): 0.08 µg/mL
MICTI ([1]; isolate 18154): 0.6 µg/mL
MICPI ([1]; isolate 27001): ≤0.04 µg/mL
MICTI ([1]; isolate 27001): 0.3 µg/mL
MICPI ([1]; isolate ATCC 22019): 0.15 µg/mL
MICTI ([1]; isolate ATCC 22019): 0.6 µg/mL
MICPI ([2]; isolate 579): 0.08 µg/mL
MICTI ([2]; isolate 579): 0.6 µg/mL
MICPI ([2]; isolate 622): 0.08 µg/mL
MICTI ([2]; isolate 622): 0.3 µg/mL
MICPI ([2]; isolate 1776): 0.08 µg/mL
MICTI ([2]; isolate 1776): 0.3 µg/mL
MICPI ([2]; isolate 2467): 0.15 µg/mL
MICTI ([2]; isolate 2467): 1.25 µg/mL
MICPI ([2]; isolate 3014): 0.08 µg/mL
MICTI ([2]; isolate 3014): 0.6 µg/mL
MICPI ([2]; isolate 5115): 0.08 µg/mL
MICTI ([2]; isolate 5115): 1.25 µg/mL
MICPI ([2]; isolate 5806): 0.08 µg/mL
MICTI ([2]; isolate 5806): 0.15 µg/mL
MICPI ([2]; isolate ATCC 750): 0.15 µg/mL
MICTI ([2]; isolate ATCC 750): 1.25 µg/mL
